# Measurements as given in US9409952B2, “Peptide-compound cyclization method” (Chugai Seiyaku Kabushiki Kaisha, priority 2011, dated 2016).
# Starred links: 1 amine or outer side, 2 acyl side, 3 side chain; linkers in the order of their positions; H or OH if unused. Positions of bridges follow the written chain, without caps; N, C: chain ends. Non-standard residues stand in square brackets, D forms with d. Residues, ends and D or L forms follow the SMILES beside them. *: point of attachment. NMeF = CN[C@@H](Cc1ccccc1)C(=O)O; NMeβAla = CN(CCC(=O)[*:2])[*:1]; NMeL = CN[C@@H](CC(C)C)C(=O)O; NMeA = CN[C@@H](C)C(=O)O; Piperidide = C1CCN(*)CC1; Sar = CNCC(=O)O; tBu = CC(C)(C)*
# Assays:
# [1] = PAMPA (parallel artificial membrane permeability assay); format: in vitro ADME; settings: PAMPA; membrane permeation rate (Pe); 50 mM MOPSO buffer pH 6.5 with 5.0% glycocholic acid, 37° C., 18 hours; read-out: iPAMPA Pe
# Method in brief: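 Artificial membrane was 10% (w/v) egg lecithin plus 0.5% (w/v) cholesterol in dodecane on a PVDF filter. A 10 mM DMSO stock was added at 0.5% (v/v) to donor buffer (50 mM MOPSO, pH 6.5, 5.0% glycocholic acid). After 18 h at 37 °C, LC/MS or LC/UV gave donor and acceptor levels for Pe.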
# [2] = Metabolic stability in human hepatic microsome; format: in vitro ADME; settings: microsomes, pH 7.4; human hepatic microsome, NADPH(+); read-out: CL NADPH(+)
Compound,"Papp at 18 hours, 50 µM [1]",microsomal CLint at 1 uM [2]
CC(C)C[C@@H]1NC(=O)[C@H](CC(C)C)N(C)C(=O)C[C@@H](C(=O)N2CCCCC2)NC(=O)[C@H](C)N(C)C(=O)[C@H](CC(C)C)N(C)C(=O)[C@H]([C@@H](C)O)NC(=O)[C@H](Cc2ccccc2)N(C)C1=O [DP-738] ([NMeL]L[NMeF]T[NMeL][NMeA]D-Piperidide; lactam N-7),22 ×10⁻⁶ cm/s,221 µL/min/mg
CC(C)C[C@H]1C(=O)N[C@H](C(=O)N2CCCCC2)CC(=O)N[C@H](C)C(=O)N(C)[C@@H](C)C(=O)N(C)[C@@H](Cc2ccccc2)C(=O)N(C)[C@@H](CC(C)C)C(=O)N[C@@H]([C@@H](C)O)C(=O)N1C [DP-739] ([dA][NMeA][NMeF][NMeL]T[NMeL]D-Piperidide; lactam N-7),18 ×10⁻⁶ cm/s,164 µL/min/mg
CC(C)C[C@H]1C(=O)N[C@H](C(=O)N2CCCCC2)CC(=O)N[C@H](C)C(=O)N(C)[C@@H](CC(C)C)C(=O)N(C)[C@@H](Cc2ccccc2)C(=O)N(C)[C@@H](CC(C)C)C(=O)N[C@@H]([C@@H](C)O)C(=O)N1C [DP-740] ([dA][NMeL][NMeF][NMeL]T[NMeL]D-Piperidide; lactam N-7),31 ×10⁻⁶ cm/s,483 µL/min/mg
CC(C)C[C@@H]1NC(=O)[C@H](CC(C)C)N(C)C(=O)[C@H](C)N(C)C(=O)[C@H]([C@@H](C)O)NC(=O)[C@H](Cc2ccccc2)N(C)C(=O)[C@@H](C)NC(=O)C[C@@H](C(=O)N2CCCCC2)NC1=O [DP-741] ([dA][NMeF]T[NMeA][NMeL]LD-Piperidide; lactam N-7),10 ×10⁻⁶ cm/s,169 µL/min/mg
CC(C)C[C@@H]1NC(=O)[C@H]([C@@H](C)O)NC(=O)[C@H](CC(C)C)N(C)C(=O)[C@H](Cc2ccccc2)N(C)C(=O)CN(C)C(=O)[C@@H](C)NC(=O)C[C@@H](C(=O)N2CCCCC2)NC1=O [DP-742] ([dA][Sar][NMeF][NMeL]TLD-Piperidide; lactam N-7),15 ×10⁻⁶ cm/s,175 µL/min/mg
CC(C)C[C@H]1C(=O)N[C@@H](COC(C)(C)C)C(=O)N(C)[C@@H](Cc2ccccc2)C(=O)N(C)[C@@H](CC(C)C)C(=O)N[C@H](C(=O)N2CCCCC2)CC(=O)N(C)CC(=O)N[C@@H]([C@@H](C)O)C(=O)N1C [DP-743] ([Sar]T[NMeL]S(tBu)[NMeF][NMeL]D-Piperidide; lactam N-7),16 ×10⁻⁶ cm/s,126 µL/min/mg
CC(C)C[C@@H]1NC(=O)[C@H](CC(C)C)N(C)C(=O)CN(C)C(=O)[C@H]([C@@H](C)O)NC(=O)[C@H](C)N(C)C(=O)C[C@@H](C(=O)N2CCCCC2)NC(=O)[C@H](Cc2ccccc2)N(C)C1=O [DP-744] ([NMeA]T[Sar][NMeL]L[NMeF]D-Piperidide; lactam N-7),12 ×10⁻⁶ cm/s,61 µL/min/mg
CC(C)C[C@@H]1NC(=O)C[C@@H](C(=O)N2CCCCC2)NC(=O)[C@H]([C@@H](C)O)NC(=O)[C@H](CC(C)C)N(C)C(=O)CN(C)C(=O)[C@H](Cc2ccccc2)N(C)C(=O)[C@H](C)N(C)C1=O [DP-745] (L[NMeA][NMeF][Sar][NMeL]TD-Piperidide; lactam N-7),17 ×10⁻⁶ cm/s,232 µL/min/mg
CC(C)C[C@H]1C(=O)N[C@@H](COC(C)(C)C)C(=O)N(C)[C@@H](Cc2ccccc2)C(=O)N(C)[C@@H](CC(C)C)C(=O)N[C@H](C(=O)N2CCCCC2)CC(=O)N(C)CCC(=O)N[C@@H]([C@@H](C)O)C(=O)N1C [DP-746] ([NMeβAla]T[NMeL]S(tBu)[NMeF][NMeL]D-Piperidide; lactam N-7),47 ×10⁻⁶ cm/s,318 µL/min/mg
CC(C)C[C@H]1C(=O)N[C@@H]([C@@H](C)O)C(=O)N[C@@H](COC(C)(C)C)C(=O)N[C@H](C(=O)N2CCCCC2)CC(=O)N(C)CCC(=O)N(C)[C@@H](Cc2ccccc2)C(=O)N(C)[C@@H](CC(C)C)C(=O)N1C [DP-747] ([NMeβAla][NMeF][NMeL][NMeL]TS(tBu)D-Piperidide; lactam N-7),20 ×10⁻⁶ cm/s,248 µL/min/mg
